# From the NIST ThermoML archive (doi:10.1021/acs.jced.5b00940)
# ± gives the expanded uncertainty stated by the source.
# Assay: mn = molality of the nth substance listed, in mol/kg
# Settings: 100 kPa, Liquid; for viscosity: Capillary tube (Ostwald / Ubbelohde) method; for mass density: Vibrating tube method
compound,measurement,setting,value
CC[N+](CC)(CC)CC.[Br-] [tetraethylammonium bromide] + O,viscosity,"288.15 K, m1 = 0.05",1.16 ± 0.047 mPa·s
same,viscosity,"288.15 K, m1 = 0.5",1.341 ± 0.054 mPa·s
same,viscosity,"288.15 K, m1 = 1",1.55 ± 0.063 mPa·s
same,viscosity,"288.15 K, m1 = 2",1.942 ± 0.08 mPa·s
same,mass density,"288.15 K, m1 = 0.05",1001.83 ± 2 kg/m3
same,mass density,"288.15 K, m1 = 0.5",1017.91 ± 2 kg/m3
same,mass density,"288.15 K, m1 = 1",1035.82 ± 2 kg/m3
same,mass density,"288.15 K, m1 = 2",1060.98 ± 2.1 kg/m3
same,viscosity,"298.15 K, m1 = 0.05",0.904 ± 0.037 mPa·s
same,viscosity,"298.15 K, m1 = 0.5",1.043 ± 0.042 mPa·s
same,viscosity,"298.15 K, m1 = 1",1.209 ± 0.049 mPa·s
same,viscosity,"298.15 K, m1 = 2",1.513 ± 0.062 mPa·s
same,mass density,"298.15 K, m1 = 0.05",998.859 ± 2 kg/m3
same,mass density,"298.15 K, m1 = 0.5",1015.99 ± 2 kg/m3
same,mass density,"298.15 K, m1 = 1",1032.57 ± 2 kg/m3
same,mass density,"298.15 K, m1 = 2",1057.94 ± 2.1 kg/m3
same,viscosity,"308.15 K, m1 = 0.05",0.731 ± 0.03 mPa·s
same,viscosity,"308.15 K, m1 = 0.5",0.836 ± 0.034 mPa·s
same,viscosity,"308.15 K, m1 = 1",0.959 ± 0.039 mPa·s
same,viscosity,"308.15 K, m1 = 2",1.189 ± 0.049 mPa·s
same,mass density,"308.15 K, m1 = 0.05",993.878 ± 2 kg/m3
same,mass density,"308.15 K, m1 = 0.5",1010.17 ± 2 kg/m3
same,mass density,"308.15 K, m1 = 1",1027.25 ± 2 kg/m3
same,mass density,"308.15 K, m1 = 2",1051.91 ± 2.1 kg/m3
same,viscosity,"318.15 K, m1 = 0.05",0.612 ± 0.025 mPa·s
same,viscosity,"318.15 K, m1 = 0.5",0.7 ± 0.028 mPa·s
same,viscosity,"318.15 K, m1 = 1",0.792 ± 0.032 mPa·s
same,viscosity,"318.15 K, m1 = 2",0.952 ± 0.039 mPa·s
same,mass density,"318.15 K, m1 = 0.05",991.993 ± 2 kg/m3
same,mass density,"318.15 K, m1 = 0.5",1007.21 ± 2 kg/m3
same,mass density,"318.15 K, m1 = 1",1023.5 ± 2 kg/m3
same,mass density,"318.15 K, m1 = 2",1046.83 ± 2.1 kg/m3
